Reference: patent US20200325177A1, “METHODS OF MAKING STREPTOGRAMIN COMPOSITIONS AND THE USE THEREOF” (THE REGENTS OF THE UNIVERSITY OF CALIFORNIA, priority 2017, published 2020)
Converted amounts (≈) assume the structure as drawn. Like-named read-outs stand apart in the source and are kept apart here.

Key:
Format in all cases: cell-based
E. faecium ATCC 35667 = assay: MIC, Gram-positive bacteria: E. faecium ATCC 35667; details: Enterococcus faecium, ATCC35667, column 2, read-out: Minimal Inhibitory Concentration (MIC) E. faecium ATCC 35667
[1] = tested on: S. aureus Vat A streptogramin; assay: MIC, Gram-positive bacteria: S. aureus Vat A streptogramin; details: Staphylococcus aureus; Gram-positive; column 5; read-out: Minimal Inhibitory Concentration (MIC) S. aureus Vat A streptogramin
S. aureus = assay: MIC, Gram-positive bacteria: S. aureus (strains not named); details: Staphylococcus aureus, read-out: Minimal Inhibitory Concentration (MIC) S. aureus
[2] = tested on: P. aeruginosa MDR clinical isolate; assay: MIC, Gram-negative bacteria: P. aeruginosa MDR clinical isolate; details: Pseudomonas aeruginosa, read-out: Minimal Inhibitory Concentration (MIC) P. aeruginosa MDR clinical isolate
[3] = tested on: S. aureus Linezolid-resistant; cfr; assay: MIC, Gram-positive bacteria: S. aureus Linezolid-resistant; cfr; details: Staphylococcus aureus, column 9, read-out: Minimal Inhibitory Concentration (MIC) S. aureus Linezolid-resistant
E. faecium VRE; vanA = assay: MIC, Gram-positive bacteria: E. faecium VRE; vanA; details: Enterococcus faecium, column 3, read-out: Minimal Inhibitory Concentration (MIC) E. faecium VRE
[4] = tested on: K. pneumoniae multidrug-resistant; assay: MIC, Gram-negative bacteria: K. pneumoniae multidrug-resistant; details: Klebsiella pneumoniae, read-out: Minimal Inhibitory Concentration (MIC) K. pneumoniae multidrug-resistant
S. pneumoniae = assay: MIC, Gram-positive bacteria: S. pneumoniae; details: Streptococcus pneumoniae, column 10, read-out: Minimal Inhibitory Concentration (MIC) S. pneumoniae
H. influenzae ATCC 49247 = assay: MIC, Gram-negative bacteria: H. influenzae ATCC 49247; details: Haemophilus influenzae, ATCC49247, read-out: Minimal Inhibitory Concentration (MIC) H. influenzae ATCC 49247
Gram-Negative Organisms = assay: microbe, parasite or virus in culture
E. faecalis = assay: MIC, Gram-positive bacteria: E. faecalis; details: Enterococcus faecalis, column 1, read-out: Minimal Inhibitory Concentration (MIC) E. faecalis
P. aeruginosa ATCC 27853 = assay: MIC, Gram-negative bacteria: P. aeruginosa ATCC 27853; details: Pseudomonas aeruginosa, ATCC27853, read-out: Minimal Inhibitory Concentration (MIC) P. aeruginosa ATCC 27853
[5] = first unnamed S. aureus column (c4)
[6] = fourth unnamed S. aureus column (c8)
[7] = second unnamed S. aureus column (c6)
[8] = third unnamed S. aureus column (c7)
[9] = Acinetobacter baumannii, ATCC19606, read-out: Minimal Inhibitory Concentration (MIC), A. baumannii ATCC 19606
[10] = Escherichia coli, ATCC25922, read-out: Minimal Inhibitory Concentration (MIC), E. coli ATCC 25922
[11] = Escherichia coli, read-out: Minimal Inhibitory Concentration (MIC), E. coli BAS2006, OMP C, OMP F
[12] = Escherichia coli, read-out: Minimal Inhibitory Concentration (MIC), E. coli olC efflux defective
[13] = Escherichia coli, read-out: Minimal Inhibitory Concentration (MIC), E. coli permeability mutant BAS1314, IMP4213ZAB::TN10
[14] = Escherichia coli, read-out: Minimal Inhibitory Concentration (MIC), E. coli ΔompC768, KanR insert
[15] = Klebsiella pneumoniae, ATCC43816, read-out: Minimal Inhibitory Concentration (MIC), K. pneumoniae ATCC 43816

| Structure (SMILES) | MIC (E. faecium ATCC 35667) [µg/mL] | MIC [1] [µg/mL] | MIC (S. aureus; [5]) [µg/mL] | MIC (S. aureus; [6]) [µg/mL] | MIC (S. aureus; [7]) [µg/mL] | MIC (S. aureus; [8]) [µg/mL] | MIC [2] [µg/mL] | MIC [3] [µg/mL] | MIC (E. faecium VRE; vanA) [µg/mL] | MIC [4] [µg/mL] | MIC (S. pneumoniae) [µg/mL] | MIC (H. influenzae ATCC 49247) [µg/mL] | MIC (Gram-Negative Organisms; [9]) [µg/mL] | MIC (Gram-Negative Organisms; [10]) [µg/mL] | MIC (Gram-Negative Organisms; [11]) [µg/mL] | MIC (Gram-Negative Organisms; [12]) [µg/mL] | MIC (Gram-Negative Organisms; [13]) [µg/mL] | MIC (Gram-Negative Organisms; [15]) [µg/mL] | MIC (E. faecalis) [µg/mL] | MIC (P. aeruginosa ATCC 27853) [µg/mL] | also measured |
| --- | --- | --- | --- | --- | --- | --- | --- | --- | --- | --- | --- | --- | --- | --- | --- | --- | --- | --- | --- | --- | --- |
| CC1=C\[C@@H](O)CC(=O)Cc2nc(co2)C(=O)N2CCC[C@@H]2C(=O)O[C@H]([C@H](C)COC(=O)Nc2cccnc2)[C@H](C)/C=C/C(=O)NC\C=C\1 [SA0110205] | 32 (≈ 48.2 µM) | > 64 | > 64 | > 64 | > 64 | > 64 | > 64 | > 64 | 64 (≈ 96.4 µM) | > 64 | 32 (≈ 48.2 µM) | 32 (≈ 48.2 µM) | > 64 | > 64 | > 64 | 8 (≈ 12.1 µM) | 16 (≈ 24.1 µM) | > 64 | > 64 | > 64 | MIC (Gram-Negative Organisms; [14]): > 64 µg/mL |
| CC1=C\[C@@H](O)CC(=O)Cc2nc(co2)C(=O)N[C@H](Cc2ccccc2)C(=O)O[C@H](C(C)C)[C@H](C)/C=C/C(=O)NC\C=C\1 [SA0202061] | 32 (≈ 55.4 µM) | 64 (≈ 111 µM) | 64 (≈ 111 µM) | 64 (≈ 111 µM) | 64 (≈ 111 µM) | 64 (≈ 111 µM) | > 64 | > 64 | 64 (≈ 111 µM) | > 64 | 16 (≈ 27.7 µM) | > 64 | > 64 | > 64 | 16 (≈ 27.7 µM) | 4 (≈ 6.92 µM) | 4 (≈ 6.92 µM) | > 64 | 32 (≈ 55.4 µM) | > 64 | – |
| CC1=C\[C@@H](O)CC(=O)Cc2nc(co2)C(=O)N2CCC[C@@H]2C(=O)O[C@H]([C@@H](C)COC(=O)Nc2ccn(C)n2)[C@H](C)/C=C/C(=O)NC\C=C\1 [SA0110113] | 64 (≈ 96 µM) | > 64 | > 64 | > 64 | > 64 | > 64 | > 64 | > 64 | > 64 | > 64 | 8 (≈ 12 µM) | 64 (≈ 96 µM) | > 64 | > 64 | 64 (≈ 96 µM) | 8 (≈ 12 µM) | 16 (≈ 24 µM) | > 64 | > 64 | > 64 | – |
| CC1=C\[C@@H](O)CC(=O)Cc2nc(co2)C(=O)N2CCC[C@@H]2C(=O)O[C@H]([C@@H](C)CN2CCC(N(C)C)CC2)[C@H](C)/C=C/C(=O)NC\C=C\1 [SA0110252] | > 64 | > 64 | > 64 | > 64 | > 64 | > 64 | > 64 | > 64 | > 64 | > 64 | > 64 | > 64 | > 64 | > 64 | > 64 | > 64 | > 64 | > 64 | > 64 | > 64 | MIC (Gram-Negative Organisms; [14]): > 64 µg/mL |
| CC1=C\[C@@H](O)CC(=O)Cc2nc(co2)C(=O)N2CCC[C@@H]2C(=O)O[C@H]([C@H](C)COC(=O)Nc2ccnc(Br)c2)[C@H](C)/C=C/C(=O)NC\C=C\1 [SA0110206] | 8 (≈ 10.8 µM) | > 64 | 16 (≈ 21.5 µM) | 16 (≈ 21.5 µM) | 16 (≈ 21.5 µM) | 32 (≈ 43.1 µM) | > 64 | > 64 | 16 (≈ 21.5 µM) | > 64 | 8 (≈ 10.8 µM) | 4 (≈ 5.39 µM) | > 64 | > 64 | 16 (≈ 21.5 µM) | 2 (≈ 2.69 µM) | 2 (≈ 2.69 µM) | > 64 | > 64 | > 64 | MIC (Gram-Negative Organisms; [14]): > 64 µg/mL |
| CC1=C\[C@@H](O)CC(=O)Cc2nc(co2)C(=O)N2CCC[C@@H]2C(=O)O[C@H](C(C)(C)C)[C@H](C)/C=C/C(=O)NC\C=C\1 [SA0306004] | 32 (≈ 59.1 µM) | > 64 | 32 (≈ 59.1 µM) | 32 (≈ 59.1 µM) | 64 (≈ 118 µM) | 64 (≈ 118 µM) | > 64 | > 64 | > 64 | > 64 | 64 (≈ 118 µM) | > 64 | > 64 | > 64 | 4 (≈ 7.38 µM) | 4 (≈ 7.38 µM) | 4 (≈ 7.38 µM) | > 64 | > 64 | > 64 | – |
